Results from BindingDB's records for doi:10.1021/acs.jmedchem.8b00277 (2018).
pEC50: −log10 of the molar value.

Assay: Inhibition of HIV1 NL4-3 protease assessed as decrease in viral replication in human MT2 cells after 4 days by luciferase reporter gene assay

SMILES | pEC50
COC(=O)N[C@H](C(=O)N[C@@H](Cc1ccccc1)[C@@H](O)CN(Cc1ccc(-c2ccccn2)cc1)NC(=O)[C@@H](NC(=O)OC)C(C)(C)C)C(C)(C)C [CGP 73547] | 9.15
COC(=O)N[C@H](C(=O)NN(Cc1ccc(-c2ccccn2)cc1)C[C@H](OC(=O)[C@@H](NC(=O)OC)C(C)(C)C)[C@H](Cc1ccccc1)NC(=O)OC(OC(=O)[C@@H](N)C(C)C)C(C)C)C(C)(C)C (stereo partly drawn) | 8.28
COC(=O)N[C@H](C(=O)NN(Cc1ccc(-c2ccccn2)cc1)C[C@H](OC(=O)[C@@H](NC(=O)OC)C(C)(C)C)[C@@H](N)Cc1ccccc1)C(C)(C)C | 8.74
